Bridge positions count the residues as written; N and C are the ends. Square brackets hold non-standard residues; d marks the D form. Peptide text beside a SMILES is read from it. Nle = CCCC[C@H](N)C(=O)O; βAla = NCCC(=O)O

The series can be described thus: RP-HPLC capacity factor. In kind it is physicochemical. The following applies: Grace Vydac C-18, 20 min gradient of 18–28% acetonitrile in 20 mM HCl, 1 mL/min.
For `CC(C)[C@H](NC(=O)[C@@H]1CCCN1C(=O)[C@H](CCCNC(=N)N)NC(=O)[C@H](CS)NC(=O)[C@H](Cc1c[nH]c2ccccc12)NC(=O)[C@H](CCCNC(=N)N)NC(=O)[C@@H](Cc1ccccc1)NC(=O)[C@H](Cc1c[nH]cn1)NC(=O)[C@H](CCC(=O)O)NC(=O)[C@H](CS)NC(=O)[C@H](CS)NC(=O)CCNC(=O)[C@@H]1CC(=O)N[C@@H](CCCNC(=N)N)C(=O)N[C@@H](C(C)C)C(=O)N[C@@H](CC(=O)O)C(=O)N[C@H](Cc2ccc(O)cc2)C(=O)N1)C(N)=O` [peptide 3, RVD-β-Ala-(Arg^11)CCMSH] (RVD[dY]D[βAla]CCEH[dF]RWCRPV-NH2; lactam N-5), the “capacity factor (k′)” value turned out to be 1.94.

`CC(C)[C@H](NC(=O)[C@@H]1CCCN1C(=O)[C@H](CCCNC(=N)N)NC(=O)[C@H](CS)NC(=O)[C@H](Cc1c[nH]c2ccccc12)NC(=O)[C@H](CCCNC(=N)N)NC(=O)[C@@H](Cc1ccccc1)NC(=O)[C@H](Cc1c[nH]cn1)NC(=O)[C@H](CCC(=O)O)NC(=O)[C@H](CS)NC(=O)[C@H](CS)NC(=O)CCNC(=O)[C@@H]1CC(=O)N[C@@H](CCCNC(=N)N)C(=O)N[C@@H](CO)C(=O)N[C@@H](CC(=O)O)C(=O)N[C@H](Cc2ccc(O)cc2)C(=O)N1)C(N)=O` [peptide 1, RSD-β-Ala-(Arg^11)CCMSH] (RSD[dY]D[βAla]CCEH[dF]RWCRPV-NH2; lactam N-5): the “capacity factor (k′)” value came out at 1.35.

For `CC(C)[C@H](NC(=O)[C@@H]1CCCN1C(=O)[C@H](CCCNC(=N)N)NC(=O)[C@H](CS)NC(=O)[C@H](Cc1c[nH]c2ccccc12)NC(=O)[C@H](CCCNC(=N)N)NC(=O)[C@@H](Cc1ccccc1)NC(=O)[C@H](Cc1c[nH]cn1)NC(=O)[C@H](CCC(=O)O)NC(=O)[C@H](CS)NC(=O)[C@H](CS)NC(=O)CCNC(=O)[C@@H]1CC(=O)N[C@@H](CCC(=O)O)C(=O)N[C@@H](C)C(=O)N[C@@H](CC(=O)O)C(=O)N[C@H](Cc2ccc(O)cc2)C(=O)N1)C(N)=O` [peptide 6, EAD-β-Ala-(Arg^11)CCMSH] (EAD[dY]D[βAla]CCEH[dF]RWCRPV-NH2; lactam N-5), the “capacity factor (k′)” value is recorded as 2.28.

`CCCC[C@@H]1NC(=O)C[C@@H](C(=O)NCCC(=O)N[C@@H](CS)C(=O)N[C@@H](CS)C(=O)N[C@@H](CCC(=O)O)C(=O)N[C@@H](Cc2c[nH]cn2)C(=O)N[C@H](Cc2ccccc2)C(=O)N[C@@H](CCCNC(=N)N)C(=O)N[C@@H](Cc2c[nH]c3ccccc23)C(=O)N[C@@H](CS)C(=O)N[C@@H](CCCNC(=N)N)C(=O)N2CCC[C@H]2C(=O)N[C@H](C(N)=O)C(C)C)NC(=O)[C@@H](Cc2ccc(O)cc2)NC(=O)[C@H](CC(=O)O)NC(=O)[C@H](C)NC1=O` [peptide 5, NAD-β-Ala-(Arg^11)CCMSH] ([Nle]AD[dY]D[βAla]CCEH[dF]RWCRPV-NH2; lactam N-5): the “capacity factor (k′)” value came to 3.17.

`CC(C)[C@H](NC(=O)[C@@H]1CCCN1C(=O)[C@H](CCCNC(=N)N)NC(=O)[C@H](CS)NC(=O)[C@H](Cc1c[nH]c2ccccc12)NC(=O)[C@H](CCCNC(=N)N)NC(=O)[C@@H](Cc1ccccc1)NC(=O)[C@H](Cc1c[nH]cn1)NC(=O)[C@H](CCC(=O)O)NC(=O)[C@H](CS)NC(=O)[C@H](CS)NC(=O)CCNC(=O)[C@@H]1CC(=O)N[C@@H](CCCNC(=N)N)C(=O)N[C@@H]([C@@H](C)O)C(=O)N[C@@H](CC(=O)O)C(=O)N[C@H](Cc2ccc(O)cc2)C(=O)N1)C(N)=O` [peptide 2, RTD-β-Ala-(Arg^11)CCMSH] (RTD[dY]D[βAla]CCEH[dF]RWCRPV-NH2; lactam N-5): the “capacity factor (k′)” value was determined as 0.98.

With `CC(C)[C@H](NC(=O)[C@@H]1CCCN1C(=O)[C@H](CCCNC(=N)N)NC(=O)[C@H](CS)NC(=O)[C@H](Cc1c[nH]c2ccccc12)NC(=O)[C@H](CCCNC(=N)N)NC(=O)[C@@H](Cc1ccccc1)NC(=O)[C@H](Cc1c[nH]cn1)NC(=O)[C@H](CCC(=O)O)NC(=O)[C@H](CS)NC(=O)[C@H](CS)NC(=O)CCNC(=O)[C@@H]1CC(=O)N[C@@H](CCCNC(=N)N)C(=O)N[C@@H](C)C(=O)N[C@@H](CC(=O)O)C(=O)N[C@H](Cc2ccc(O)cc2)C(=O)N1)C(N)=O` [peptide 4, RAD-β-Ala-(Arg^11)CCMSH] (RAD[dY]D[βAla]CCEH[dF]RWCRPV-NH2; lactam N-5), the “capacity factor (k′)” value came out at 3.32.

Source of the values: publication PMC4234429 (Journal of Medicinal Chemistry, 2014).
